Patent US12607620B2, “Devices and systems for mimicking heart function” (UNIVERSITY OF CENTRAL FLORIDA RESEARCH FOUNDATION, INC., priority 2013, dated 2026)

Columns and labels:
human cardiomyocytes [1] = assay: Cantilever contractile force measurement of human cardiomyocytes (AFM-like laser deflection detection); type: cell-based
Method: Spontaneous or electrical stimulation-evoked force generation of cardiac myocytes was measured based on optical detection or electrical detection of cantilever-bending. Optical detection of displacement of the end of the cantilever was based on the principle routinely used in atomic force microscopes (AFM) in which a laser beam was reflected from the cantilever to a sensor. The sensor detected the displacement of the laser beam caused by changes in the position of the cantilever. In this optical detection method, an automated electrical shutter was placed in the beam path. This placement minimized the exposure of the cells to the reflected laser light. Electrical detection of the displacement was based on piezoelectric principle that requires special design and materials for the fabrication of the cantilevers. Both detection methods enabled automation and high-throughput screening on myocyte contraction force. Peak contraction force and force-contraction velocity relationships were calculated based on the geometry of the cantilevers and the thickness of cultured cardiac myocytes (determined from immunostaining data). Compounds (such as norepinephrine, epinephrine, ouabain, verapamil, and sotalol) were applied using traditional methods to the medium and possible changes in force or force-velocity relationship were detected and analyzed using standard statistical methods.
A detection system similar to those used in atomic force microscope (AFM) system was designed for measuring deflection of the cantilevers during contraction. The entire system was assembled around an upright Olympus BX51WI electrophysiology microscope (Olympus Inc., Center Valley, PA). The detection system consisted of a class 2 red photodiode laser (Newport, Irvine, CA), a stimulation chamber, a 4-quadrant photodetector (Noah Industries, Melbourne, FL), and a computer with pClamp 10.0 data acquisition software (Molecular Devices, Union City, CA). The laser and photodetector (PD) were mounted on x-y-z-h translators (Newport, Irvine, CA), which were mounted on the underside of the microscope stage. The stimulation chamber was fabricated from 5 mm thick polycarbonate sheet. An approximately 15 mm×15 mm square chamber was milled out of the sheet and fitted with silver wires (0.015 inch diameter) for field stimulation. The silver wires were mounted parallel to each other with a separation of 15 mm. The bottom of the chamber was sealed using a 22 mm×22 mm glass coverslip. This created a transparent base through which the laser beam could easily pass. The silver wires were connected to an external pulse generator (A-M systems, Sequim, WA) capable of producing field stimulation pulses of varying intensity, frequency, and waveform. Both the pulse generator and PD were connected to an Axon Instruments series 1440 digitizer (Molecular Devices, Union City, CA) which was interfaced with the computer.
A detection system similar to that used in atomic force microscopy (AFM) was used in these experiments. Prior to recording, the cells were allowed to equilibrate for 15 min in the lab atmosphere at 37° C. Drugs were added cumulatively as follow: 0.1 μM, 0.3 μM, 1.0 μM, and 3.0 μM (norepinephrine); 0.1 μM, 1.0 μM, and 3.0 μM (epinephrine); 0.1 μM, 0.3 μM, 1.0 μM, and 3.0 μM (ouabain); and 0.3 μM, 1.0 μM, and 3.0 μM (verapamil). Washout was performed by rinsing the cells five (5) times with 1 mL of cell culture medium.

human cardiomyocytes [2] = assay: Microelectrode array (MEA) recording of electrical activity of patterned human cardiomyocytes; type: cell-based
Method: The cardiac myocytes were cultured on patterned metal MEAs (planar 10 μm electrodes, 200 μm separation, Multichannel-systems). A 60 channel amplifier (MEA1040, Multichannel-systems) was used to record electrical activity from the spontaneously beating cardiac cells. The same electrodes were also used for stimulation utilizing a stimulus generator (STG 1002, Multichannel systems). The cells were stimulated utilizing 500 mV, 1 ms wide bipolar pulses at 2 Hz. The recording medium was the same as the plating medium with the pH adjusted to 7.3 using HEPES buffer. After a 30 minute incubation period, APs were detected and recorded using built in functions of the Multichannel System software. […] The data was further analyzed using software written using Matlab and Clampfit (Axon instruments). […] The cardiomyocytes used in these experiments were derived from differentiated adult induced pluripotent stem cells purchased from Cellular Dynamics. In FIG. 27 and FIG. 28, the electrical activity of the human cardiomyocytes plated on patterned MEAs was recorded following 12 days in vitro using a Multichannel Systems 60 channel amplifier (MEA 1040, Multichannel Systems). Prior to recording, the cells were allowed to equilibrate for 15 min in the lab atmosphere at 37° C. Temperature was maintained with a TC02 temperature controller (Multichannel Systems). The cells were stimulated using a STG 1002 stimulator (Multichannel Systems) by applying 1 ms wide bipolar square pulses of 500 mV every 500 ms. The recording medium was the same as the plating medium. […] Data are represented as percentage changes compared to the control and expressed as mean +/−SEM. In FIG. 29, electrical activity of the human cardiomyocytes plated on patterned MEAs was recorded following 12 days in vitro (DIV) using a Multichannel Systems 60 channel amplifier (MEA 1040, Multichannel Systems). Prior to recording, the cells were allowed to equilibrate for 15 min in the lab atmosphere at 37° C. Temperature was maintained with a TC02 temperature controller (Multichannel Systems). The cells were stimulated using a STG 1002 stimulator (Multichannel Systems) by applying 1 ms wide bipolar square pulses of 500 mV every 500 ms. The recording medium was the same as the plating medium. Sotalol (Sigma, cat#S0278) was added to the bathing medium in increasing concentrations of 0 μM, 10 μM, 30 μM, 100 μM, and 300 μM.

[3] = cardiomyocytes derived from human iPSCs cultured on cantilevers (FIG. 31D)
[4] = norepinephrine concentration range 0.1-3 μM, human cardiac myocytes
[5] = sotalol 0-300 μM in bathing medium, human cardiomyocytes on patterned MEAs, 12 DIV, change vs control (FIG. 29)

`NC[C@H](O)c1ccc(O)c(O)c1` [norepinephrine] was tested, and the contractile force (human cardiomyocytes [1]; [3]) was “increasing”, the contractile frequency (human cardiomyocytes [1]; [3]) was “increasing” and the peak contraction force (human cardiomyocytes [1]; norepinephrine concentration range 0.1-3 μM, human cardiac myocytes on cantilevers, 14 days in vitro (FIG. 30A)) was “increased”. The QT interval (human cardiomyocytes [2]; [4]) was “decreased”, the “minimal ISI (analogue of QT interval)” value (human cardiomyocytes [2]; [4]) was “decreased” and the spontaneous beating rate (human cardiomyocytes [2]; [4]) was “significantly increased”.
For `CC(C)NCC(O)c1ccc(NS(C)(=O)=O)cc1` (centres unmarked) [sotalol], the QT intervals (human cardiomyocytes [2]; [5]) was “significantly increased”, the “mISI (minimum interspike interval)” value (human cardiomyocytes [2]; [5]) was “significantly increased” and the conduction velocity (human cardiomyocytes [2]; sotalol concentrations above 100 μM, human cardiomyocytes on patterned MEAs, 12 DIV) was “decreased”.
`COc1ccc(CCN(C)CCC[C@@](C#N)(c2ccc(OC)c(OC)c2)C(C)C)cc1OC` [verapamil] was tested, and the “peak force versus concentration (μM)” value (human cardiomyocytes [1]; human cardiomyocytes following administration of verapamil (FIG. 12C)) was “decrease” and the contraction peak force (human cardiomyocytes [1]; verapamil 0.3, 1.0, 3.0 μM cumulative, human cardiomyocytes on cantilevers, 14 days in vitro (FIG. 30D)) was “concentration dependently decreased”.
